Read-outs that look alike come from different tables or passages of the source.
Key:
Mycobacterium bovis = assay type: cell-based
Pseudomonas aeruginosa = assay: Bacterial testing, ISO-GRID membrane filter system; assay type: cell-based; settings: 400 ppm hard water; for Kill of Pseudomonas aeruginosa (in words): 1 minute, 5% soil; for Results (percent kill) / Results Log10 Reduction: 1 minute contact, 5% organic soil, bacteria 6.81 log10 (CFU/g)
Method: • Bacteria (gram negative): Pseudomonas aeruginosa • Pathogenesis: Opportunistic pathogen in humans, cause of 1 in 10 nosocomial infections^1, causes wound, blood, burn, urinary tract, lung and ear infections. ^1http://textbookofbacteriology.net/pseudomonas.html • Concentration of Bacteria: 6.81 log10 (CFU/g) • Solution Contact Time: 1 minute • Dilution media: hard water (400 ppm) • Bio burden: 5% organic soil
The tests were performed using the ISO-GRID™ membrane filter system (Neogen Corp., Lansing, Mich., USA) according to a slightly modified procedure described in the ISO-GRID™ Methods Manual (3rd Ed.; QA Life Sciences, Inc., San Diego, Calif., USA; 1999).

[1] = ten minutes contact, 5% fetal bovine serum, 5.8*10^5 CFU/carrier
[2] = ten minutes contact, 5% fetal bovine serum

| Compound | Kill of Pseudomonas aeruginosa (in words) (Pseudomonas aeruginosa) | Kill of Mycobacterium bovis (in words) (Mycobacterium bovis; [2]) | Results (percent kill) (Pseudomonas aeruginosa) [%] | Results Log10 Reduction (Pseudomonas aeruginosa) [Log10] | also measured |
| --- | --- | --- | --- | --- | --- |
| O=Cc1ccccc1C=O [2., Orthophthalaldehyde] | – | – | – | – | Pass/Fail (Intermediate 30 day read) (Mycobacterium bovis; [1]): Fail; Results (Intermediate 30 day read) (Mycobacterium bovis; [1]): 1/10 |
| O=Cc1ccccc1C=O [OPA, orthophthalaldehyde] | Neither OPA nor DDABC alone were sufficient to kill all | neither OPA, nor DDABC alone was sufficient to provide complete kill | – | – | – |
| O=Cc1ccccc1C=O [compound 4, Orthophthalaldehyde] | – | – | 40.2 | 2.74 | – |
| Didecyldimethylammonium bicarbonate/carbonate [compound 3] | – | – | 87.4 | 5.95 | – |
| didecyldimethylammomum bicarbonate/carbonate [1.] | – | – | – | – | Pass/Fail (Intermediate 30 day read) (Mycobacterium bovis): Fail; Results (Intermediate 30 day read) (Mycobacterium bovis): 1/10 |
| didecyldimethylammonium bicarbonate/carbonate [DDABC] | Neither OPA nor DDABC alone were sufficient to kill all | neither OPA, nor DDABC alone was sufficient to provide complete kill | – | – | – |

From patent US20110009493A1 (priority 2008, published 2011)
